# Data from patent US20250082625A1, “NOVEL THERAPY” (priority 2016, published 2025).
# Entries after “also recorded” stand apart in the source; their conditions may differ.
# Legend:
# HTB-9 cells = experiment: Pre-treatment of HTB-9 bladder epithelial cells before CY17 infection (confocal imaging, ELISA); assay type: cell-based, human
# Experimental: (§1) Cells were grown on 8-well chamber slides (6×10^4 cells/well, Thermo Fischer Scientific) or in 6-well plates (6×10^5 cells/well) for 16 hours in media supplemented with 10% FBS. Media were removed, and cells were washed with PBS before adding medium without FBS. Cells were infected with bacteria diluted to appropriate concentration in PBS and incubated for one or four hours at 37° C. with 5% CO2.
# (§2) The two cell types were first infected with increasing concentrations of the acute cystitis strain E. coli CY-17 (10^2-10^4 cfu/ml) for 1 to 4 hours. NK1R and SP expression was used as a read out of the cellular response. […] A concentration of 10^4 cfu/ml of CY-17 and four hours of infection was chosen for further studies. Under these conditions, there was little cytotoxicity. To further characterize the neuropeptide response to bladder infection, the in vitro analysis was extended to include GALR2, OrxR2 and TAS2R43. Confocal microscopy was used in this instance. Infected cells were fixed (3.7% formaldehyde, 15 min), permeabilized (0.25% triton X-100, 5% FBS, 10 min), blocked (5% FBS, 1 h at RT), incubated overnight with primary antibodies in 5% FBS: Anti-NK1R (1:100, SC-15323, Santa Cruz), anti-SP, (1:200, ORB11399, Biorbyt), anti-orexin receptor 2, (1:200, AB10470, Abcam), anti-TAS2R43, (1:200, AB65513, Abcam), and anti-GALR2 antibodies (1:100, AB136264, Abcam). Appropriate fluorescently labeled secondary antibodies were used (Alexa Fluor® 488 goat anti-rabbit IgG, A-11034; Life Technologies, (1 hour at Room Temperature). After nuclear staining (DRAQ5, 1:1000, Abcam) slides were mounted (Fluoromount, Sigma-Aldrich), imaged by laser scanning confocal microscopy (MSM510 META confocal microscope, Carl Zeiss) and quantified by ImageJ software 1.46r (NIH).
# (§3) HTB-9 cells and differentiated SH-SY5Y cells were pre-treated with SR140333, or IL-1RA Anakinra (500 ng/ml) for 30 minutes before infection with CY17 (10^4 cfu/ml, four hours), or treatment with exogenous recombinant SP (R&D System) or IL-1β (Abnova) (20 ng/ml, four hours). After infection, cells were infected with CY17 and the NK1R, SP and IL-1β response was quantified by confocal imaging. IL-1β- and SP secretion was quantified by ELISA, in culture supernatants. In nerve- and bladder epithelial cells, SR140333 inhibited the SP/NK1R response to infection, consistent with an autocrine activation loop involving SP/NK1R as shown by confocal imaging (FIG. 10a). […] SP activated IL-1β expression and secretion in bladder epithelial cells but had no effect on IL-1β on nerve cells. (*=P<0.05, **=P<0.01, ***=P<0.001, Two-tailed t-test for confocal imaging data and Mann-Whitney U-test for ELISAs.
# Furthermore, to examine if the effects of NK1R inhibition can be generalized, we used two additional NK1R antagonists (CP99994 and L703.303). HTB-9 cells and differentiated SH-SY5Y cells were pre-treated with SR140333, CP99994, L-703.606 or IL-1RA Anakinra (500 ng/ml) for 30 minutes before infection with CY17 (10^4 cfu/ml, four hours), or treatment with exogenous recombinant SP (R&D System) or IL-1β (Abnova) (20 ng/ml, four hours).
# [1] = system: differentiated SH-SY5Y cells; experiment: Pre-treatment of differentiated SH-SY5Y nerve cells before CY17 infection (confocal imaging, ELISA); assay type: cell-based, human
# Experimental: as §1, §2, §3
# Furthermore, to examine if the effects of NK1R inhibition can be generalized, we used two additional NK1R antagonists (CP99994 and L703.303). […]
# NK1R = experiment: Neuropeptide response in bladders of CY-17 infected Nlrp3^−/− mice treated with NK1R antagonist (immunohistochemistry, qRT-PCR); assay type: in vivo; conditions: for Nk1r expression (qRT-PCR) / Ppt-1 expression (qRT-PCR): 1 mg/kg i.p.
# Source text: Mice were bred and housed in the specific pathogen-free MIG animal facilities (Lund, Sweden) with free access to food and water. Female C57BL/6 mice or Il1b^−/−, Nlrp3^−/−, Asc^−/− mice were used for experiments at 9-15 weeks of age.
# Tissues were embedded in O.C.T. compound (VWR) and 7-μm-thick fresh cryosections were mounted on positively charged microscope slides (Superfrost/Plus; Thermo Fisher Scientific) Sections were permeabilized (0.25% Triton X-100, 5% FBS), blocked (5% FBS) and stained: rabbit anti-NK1R (1:50, SC-15323, SantaCruz), rabbit anti-substance p (1:100, ORB11399, Biorbyt), rabbit anti-orexin receptor 2 (1:300, AB104701, Abcam), rabbit anti-GALR2 (1:50, AB136264, Abcam) or rabbit anti-TAS2R43 (1:100, AB65513, Abcam). Antibodies were appropriately labeled using goat anti-rabbit secondary antibodies conjugated to Alexa 488 (1:200 in 0.025% Triton X-100, 5% FBS) for 1 h in RT before nuclear counterstaining using Draq5 (1:1000, Abcam). Sections were imaged by laser scanning confocal microscopy (MSM510 META confocal microscope, Carl Zeiss) or by fluorescence microscopy (AX60, Olympus Optical).
# Complementary DNA was reverse-transcribed from 0.2-1 μg of mice total RNA using SuperScript™ III First-Strand Synthesis System for RT-PCR (Invitrogen), and quantified in real time using primer pairs against Mus musculus Nk1r, Ppt-1^37 and Galr2 and QuantiTect® SYBR® Green PCR kits (Qiagen) on a Rotor Gene Q (Qiagen).
# qRT-PCR reactions were run in technical duplicates and gene expression was analyzed based on ΔΔCT comparison to Mus musculus GAPDH.
# The severity of acute cystitis after 24 hours or seven days was examined and neuropeptide expression and disease severity quantified by immunohistochemistry and qRT-PCR of whole bladder RNA extracts, using primers specific for NK1R, Ppt-1 or Galr2 as described above.
# [2] = pre-treated 30 minutes before CY17 (10^4 cfu/ml, four hours)
# [3] = pre-treated before CY17 infection
# [4] = Nlrp3^−/− mice, CY-17 infection, SR140333 i.p. 1 mg/kg, vs untreated infected mice, 1 mg/kg
smiles,measurement,setting,value
"CC(C)Oc1cccc(CC(=O)N2CCC[C@](CC[N+]34CCC(c5ccccc5)(CC3)CC4)(c3ccc(Cl)c(Cl)c3)C2)c1.[Cl-] [SR140333, 1-[2-[(3S)-3-(3,4-Dichlorophenyl)-1-[2-[3-(1-methylethoxy)phenyl]acetyl]-3-piperidinyl]ethyl]-4-phenyl-1-azoniabicyclo[2.2.2]octane chloride]",SP/NK1R response to infection (confocal imaging),HTB-9 cells; [2],inhibited
same,"IL-1β secretion (ELISA, culture supernatants)",HTB-9 cells; [3],inhibited; also recorded: decreased
same,"SP secretion (ELISA, culture supernatants)",HTB-9 cells; [3],decreased
same,SP/NK1R response to infection (confocal imaging),[1]; [2],inhibited
same,"SP secretion (ELISA, culture supernatants)",[1]; [3],decrease
same,mucosal NK1R response to infection (NK1R staining),NK1R; [4],reduced; also recorded: Inhibition
same,mucosal SP response to infection (SP staining),NK1R; [4],reduced; also recorded: Attenuated
same,Galr2 expression (qRT-PCR),"NK1R; either treatment (prophylactic or post-infection), p=0.19 and p=0.63",no significant effect; also recorded: not altered
same,GALR2 staining,"NK1R; infected mice, n=4 mice per condition",does not effect
same,Nk1r expression (qRT-PCR),"NK1R; post-infection treatment, p<0.01",reduced
same,Ppt-1 expression (qRT-PCR),"NK1R; post-infection treatment, p<0.01, 1 mg/kg",affected; also recorded: Inhibition
same,Nk1r expression (qRT-PCR),"NK1R; prophylactic treatment (pretreatment), p<0.05",reduced
same,Ppt-1 expression (qRT-PCR),"NK1R; prophylaxis (pretreatment), p=0.06",less efficient
